Source: US8642807B2, “Crystallized diacetylenic indicator compounds and methods of preparing the compounds” (Temptime Corporation, priority 2007, dated 2014)

What was measured:
Format in all cases: physicochemical
[1] = Solubility test: ability of each solvent to dissolve at least 1 percent by weight at a process temperature near its boiling point (Example 1)
Source text: This example illustrates solvent mapping, testing and solubility region definition for a diacetylenic monomer for which new solvents and solubility information are desired, namely 2,4-hexadiyn-1,6-bis(ethylurea) and for which reliable solubility parameter information is not available. In this example, solubility points are mapped for each of a number of representative samples of a wide range of solvents of different chemical types and physicochemical characteristics, according to their solubility parameters. The solubility points of the representative solvents (filled squares) are mapped on a plot of hydrogen bonding (δH), on the Y-axis, versus polar parameters (δP), on the X-axis, generating a map such as that shown in FIG. 4. Also shown in FIG. 4 are solubility points for solvent systems comprising 25 percent by weight water/solvent mixtures (unfilled squares).
Each solvent is tested for its ability to dissolve at least 1 percent by weight 2,4-hexadiyn-1,6-bis(ethylurea) at a temperature not more than 5° C. above the boiling point of the solvent. Because the boiling points of the solvents tested vary widely, ranging from 56° C. to 189° C. the solvents are processed in batches at temperatures of 60, 75, 82, and 90° C., respectively. The process temperature desirably is not greater than 4 to 5° C. above a given solvent's boiling point.
Some exemplary solubility data obtainable for 2,4-hexadiyn-1,6-bis(ethylurea) from the above-described solubility test with the solvents indicated, are set forth in Table 1 below along with solubility parameter information for the solvents. Also included in Table 1 are data regarding the 25 percent by weight water/solvent mixtures.

[2] = Further solubility tests at 1, 4, 7 and 10 percent by weight, 90° C. water bath (Example 2)
Protocol: A 90° C. water bath is employed to maintain the solvent or solution temperature and results obtainable are tabulated in Table 2 below, solubility parameter information again being included to facilitate understanding of the data for acetone and water, for reference.

[3] = Room temperature solubilities in various solvent systems (Table 3); conditions: for Solubility: 20° C., material recrystallized from acetic acid
Source text: As is the case elsewhere herein, the acetone/water and ethanol/water solvent mixtures are given in weight-for-weight proportions in Table 3 and FIG. 10. It can be seen from Table 3 and FIG. 10 that some of the solvent systems displaying elevated solubility at higher temperatures, for example acetic acid and the several aqueous mixtures, have only limited solubility at room temperature.

[4] = Solubility in 1,1,3,3-tetramethyl urea at 90° C. in a closed vial; conditions: tetramethyl urea (TMU)
Protocol: 1,1,3,3tetramethyl urea, also called “tetramethyl urea” and sometimes referenced “TMU” can dissolve up to 7% weight 2,4-hexadiyn-1,6-bis(ethylurea) at a temperature of 90° C. in a closed vial.

[5] = solvent 1-Propanol, 90° C. water bath
[6] = solvent 2-Propanol (IPA), 90° C. water bath
[7] = solvent 25% Water/Acetone, 90° C. water bath
[8] = solvent 25% Water/DMF, 90° C. water bath
[9] = solvent 25% Water/DMSO, 90° C. water bath
[10] = solvent 25% Water/Ethanol, 90° C. water bath
[11] = solvent 25% Water/IPA, 90° C. water bath
[12] = solvent 25% water/acetic acid, 90° C. water bath
[13] = solvent 25% water/formic acid, 90° C. water bath
[14] = solvent Acetic acid, 90° C. water bath
[15] = solvent Acetone, 90° C. water bath
[16] = solvent DMSO, 90° C. water bath
[17] = solvent Ethanol, 90° C. water bath
[18] = solvent Ethylene Glycol, 90° C. water bath
[19] = solvent Formic acid, 90° C. water bath
[20] = solvent Methanol, 90° C. water bath
[21] = solvent Pyridine, 90° C. water bath
[22] = solvent Water, 90° C. water bath

With `CCNC(=O)NCC#CC#CCNC(=O)NCC` [KE, 2,4-hexadiyn-1,6-bis(ethylurea)] the amount dissolved ([1]; N,N-dimethyl formamide (DMF)) was “at least 1 percent by weight”, the amount dissolved ([1]; acetic acid) was “at least 1 percent by weight” and the amount dissolved ([1]; dimethyl sulfoxide (DMSO)) was “at least 1 percent by weight”. For the same compound, the amount dissolved ([1]; ethanol (EtOH)) was “at least 1 percent by weight”, the amount dissolved ([1]; ethylene glycol) was “at least 1 percent by weight” and the “amount solvated by pyridine” value ([1]; pyridine) was “about 1 % by weight”. For the same compound, the “KE soluble at 1% wt?” value ([1]; solvent Acrylonitrile, process T 75 °C) was “No”, the “KE soluble at 1% wt?” value ([1]; solvent Benzene, process T 75 °C) was “No” and the “KE soluble at 1% wt?” value ([1]; solvent Ethanol, process T 75 °C) was “Yes”. For the same compound, the “KE soluble at 1% wt?” value ([1]; solvent Ethyl acetate, process T 75 °C) was “No”, the “KE soluble at 1% wt?” value ([1]; solvent THF, process T 60 °C) was “No” and the “KE soluble at 1% wt?” value ([1]; solvent n-Hexane, process T 75 °C) was “No”. For the same compound, the amount dissolved ([1]; the water/solvent mixtures (25 percent by weight water), all) was “at least 1 percent by weight”, the Solubility ([2]; 25% water/ethanol mixture (1 part water, 3 parts ethanol by weight)) was “at least 4 percent by weight” and the Solubility ([2]; dimethyl sulfoxide, 90° C. water bath) was over 10%. For the same compound, the Solubility ([2]; formic acid, 90° C. water bath) was over 10%, the Solubility ([2]; pure ethanol) was “less than 4 percent by weight” and the “Is KE soluble at 1%?” value [2, 5] was “Yes”. The “Is KE soluble at 4%?” value [2, 5] was “No”, the “Is KE soluble at 7%?” value [2, 5] was “No” and the “Is KE soluble at 10%?” value [2, 5] was “No”. For the same compound, the “Is KE soluble at 1%?” value [2, 6] was “Yes”, the “Is KE soluble at 4%?” value [2, 6] was “No” and the “Is KE soluble at 7%?” value [2, 6] was “No”. For the same compound, the “Is KE soluble at 10%?” value [2, 6] was “No”, the “Is KE soluble at 1%?” value [2, 7] was “Yes” and the “Is KE soluble at 4%?” value [2, 7] was “Yes”. The “Is KE soluble at 7%?” value [2, 7] was “No”, the “Is KE soluble at 10%?” value [2, 7] was “No” and the “Is KE soluble at 1%?” value [2, 8] was “Yes”. The “Is KE soluble at 4%?” value [2, 8] was “Yes”, the “Is KE soluble at 7%?” value [2, 8] was “Yes” and the “Is KE soluble at 10%?” value [2, 8] was “No”. For the same compound, the “Is KE soluble at 1%?” value [2, 9] was “Yes”, the “Is KE soluble at 4%?” value [2, 9] was “Yes” and the “Is KE soluble at 7%?” value [2, 9] was “No”. For the same compound, the “Is KE soluble at 10%?” value [2, 9] was “No”, the “Is KE soluble at 1%?” value [2, 10] was “Yes” and the “Is KE soluble at 4%?” value [2, 10] was “Yes”. For the same compound, the “Is KE soluble at 7%?” value [2, 10] was “No”, the “Is KE soluble at 10%?” value [2, 10] was “No” and the “Is KE soluble at 1%?” value [2, 11] was “Yes”. The “Is KE soluble at 4%?” value [2, 11] was “No”, the “Is KE soluble at 7%?” value [2, 11] was “No” and the “Is KE soluble at 10%?” value [2, 11] was “No”. For the same compound, the “Is KE soluble at 1%?” value [2, 12] was “Yes”, the “Is KE soluble at 4%?” value [2, 12] was “Yes” and the “Is KE soluble at 7%?” value [2, 12] was “Yes”. For the same compound, the “Is KE soluble at 10%?” value [2, 12] was “No”, the “Is KE soluble at 1%?” value [2, 13] was “Yes” and the “Is KE soluble at 4%?” value [2, 13] was “Yes”. The “Is KE soluble at 7%?” value [2, 13] was “Yes”, the “Is KE soluble at 10%?” value [2, 13] was “No” and the “Is KE soluble at 1%?” value [2, 14] was “Yes”. The “Is KE soluble at 4%?” value [2, 14] was “Yes”, the “Is KE soluble at 7%?” value [2, 14] was “Yes” and the “Is KE soluble at 10%?” value [2, 14] was “Yes”. The “Is KE soluble at 1%?” value [2, 15] was “No”, the “Is KE soluble at 4%?” value [2, 15] was “No” and the “Is KE soluble at 7%?” value [2, 15] was “No”. The “Is KE soluble at 10%?” value [2, 15] was “No”, the “Is KE soluble at 1%?” value ([2]; solvent DMF, 90° C. water bath) was “Yes” and the “Is KE soluble at 4%?” value ([2]; solvent DMF, 90° C. water bath) was “Yes”. For the same compound, the “Is KE soluble at 7%?” value ([2]; solvent DMF, 90° C. water bath) was “Yes”, the “Is KE soluble at 10%?” value ([2]; solvent DMF, 90° C. water bath) was “Yes” and the “Is KE soluble at 1%?” value [2, 16] was “Yes”. The “Is KE soluble at 4%?” value [2, 16] was “Yes”, the “Is KE soluble at 7%?” value [2, 16] was “Yes” and the “Is KE soluble at 10%?” value [2, 16] was “Yes”. For the same compound, the “Is KE soluble at 1%?” value [2, 17] was “Yes”, the “Is KE soluble at 4%?” value [2, 17] was “No” and the “Is KE soluble at 7%?” value [2, 17] was “No”. For the same compound, the “Is KE soluble at 10%?” value [2, 17] was “No”, the “Is KE soluble at 1%?” value [2, 18] was “Yes” and the “Is KE soluble at 4%?” value [2, 18] was “No”. The “Is KE soluble at 7%?” value [2, 18] was “No”, the “Is KE soluble at 10%?” value [2, 18] was “No” and the “Is KE soluble at 1%?” value [2, 19] was “Yes”. The “Is KE soluble at 4%?” value [2, 19] was “Yes”, the “Is KE soluble at 7%?” value [2, 19] was “Yes” and the “Is KE soluble at 10%?” value [2, 19] was “Yes”. For the same compound, the “Is KE soluble at 1%?” value [2, 20] was “Yes”, the “Is KE soluble at 4%?” value [2, 20] was “Yes” and the “Is KE soluble at 7%?” value [2, 20] was “No”. The “Is KE soluble at 10%?” value [2, 20] was “No”, the “Is KE soluble at 1%?” value [2, 21] was “Yes” and the “Is KE soluble at 4%?” value [2, 21] was “No”. For the same compound, the “Is KE soluble at 7%?” value [2, 21] was “No”, the “Is KE soluble at 10%?” value [2, 21] was “No” and the “Is KE soluble at 1%?” value [2, 22] was “No”. The “Is KE soluble at 4%?” value [2, 22] was “No”, the “Is KE soluble at 7%?” value [2, 22] was “No” and the “Is KE soluble at 10%?” value [2, 22] was “No”. The solubility in water ([2]; water) was “insoluble”, the Solubility ([2]; water and acetone combined (25% Water/Acetone)) was “at least 4 percent by weight” and the Solubility ([3]; Acetic acid) was 0.6 wt. % of the Solution. For the same compound, the Solubility ([3]; Acetone/water 4:1 (weight for weight)) was 0.16 wt. % of the Solution, the Solubility ([3]; DMF) was 4 wt. % of the Solution and the Solubility ([3]; DMSO) was 4 wt. % of the Solution. The Solubility ([3]; Dichloroacetic acid) was 33 wt. % of the Solution, the Solubility ([3]; Ethanol/water 4:1 (weight for weight)) was 0.18 wt. % of the Solution and the Solubility ([3]; Ethyl alcohol) was 0.17 wt. % of the Solution. For the same compound, the Solubility ([3]; Formic acid) was 23 wt. % of the Solution, the Solubility ([3]; Isopropyl alcohol) was 0.09 wt. % of the Solution and the Solubility ([3]; Methyl alcohol “MeOH”) was 0.27 wt. % of the Solution. The Solubility ([3]; Tetramethyl urea) was 0.90 wt. % of the Solution, the Solubility ([3]; Trifluoroaceticacetic acid) was 30 wt. % of the Solution and the “amount solvated by formic acid” value ([3]; formic acid, room temperature) was about 13 % by weight. For the same compound, the “amount dissolved by 1,1,3,3-tetramethyl urea” value [4] was “up to 7 % weight”.
